Test results published in US6413499B1, “Methods and kits for maxillary dental anesthesia by means of a nasal deliverable anesthetic” (priority 2000, dated 2002).
Structures can show the parent of a compound that is named as a salt.

Test system: maxillary dental arch
Assay: nasal deliverable anesthetizing composition applied to a patient's nasal cavity
Assay type: in vivo
Conditions: for absorption of the anesthetic with vasoconstrictor: compared to an anesthetic composition applied to nasal tissue not treated with a vasoconstrictor, HCl
From the text: As set forth above, the inventive nasal deliverable anesthetic compositions are delivered to the patient through the nasal cavity. This is done by applying the anesthetic composition to the lateral wall or membrane of the nasal cavity, where it can be absorbed into the nasal tissue, including nerves located within the nasal tissue. In the case where a delivery device having an extension tube is used, good results have been obtained by inserting approximately 15 mm of the tube into the patient's nasal cavity through the nostril. A nasal speculum may advantageously be used to assist in dilating the patient's nostril preparatory to inserting the extension tube so as to facilitate placement of the tube in a desired location within the patient's nasal cavity.
As discussed above with respect to FIG. 1, the nasal cavity includes a number of nerves that are responsible for transmitting pain and pressure impulses from the maxillary arch and palate to the brain. Most of these nerves collect at and below the maxillary nerve. Due to the location of the various nerves that collect at or below the maxillary nerve it may be possible to provide various degrees of anesthesia. Control of dosage volume, through control of the number of substance dispensing, can be utilized to determine the anatomical structures to be anesthetized. Minimal dosage volumes tend to yield anesthesia to at least a portion of the maxillary dentition, while greater anesthetic dosages yield anesthesia to the entire maxillary arch.
The tetracaine portion included an associated chlorobutanol preservative. The aqueous solution included sodium chloride in water.

SMILES: Cc1cc(C(C)(C)C)c(O)c(C)c1CC1=NCCN1 [Oxymetazoline HCl]
- anesthetic effect of the anesthetic with vasoconstrictor (compared to a lidocaine composition applied to nasal tissue not treated with a vasoconstrictor): enhanced the anesthetic effect of the lidocaine
- absorption of the anesthetic with vasoconstrictor: enhanced the absorption of the tetracaine
- absorption of the anesthetic with vasoconstrictor (listed as oxymetazoline HCl): enhanced the absorption of the benzocaine
